{
  "source": "paper PMC5520056",
  "about": "“Cryo-EM structures of the ATP-bound Vps4^E233Q hexamer and its complex with Vta1 at near-atomic resolution” (Nature Communications, 2017)",
  "molecular_target": "T1, Vps4–Vta1 complex (Saccharomyces cerevisiae, UniProt P52917)",
  "T1 construct": "both proteins with N-terminal His6 tag (pET28a), E. coli BL21(DE3); Vps4 hexamer with Vta1 at ~2:1 Vta1/Vps4; four Vta1 CTD dimers modelled; with Vacuolar protein sorting-associated protein VTA1",
  "T1 sequence (P52917 1-437 E233Q)": "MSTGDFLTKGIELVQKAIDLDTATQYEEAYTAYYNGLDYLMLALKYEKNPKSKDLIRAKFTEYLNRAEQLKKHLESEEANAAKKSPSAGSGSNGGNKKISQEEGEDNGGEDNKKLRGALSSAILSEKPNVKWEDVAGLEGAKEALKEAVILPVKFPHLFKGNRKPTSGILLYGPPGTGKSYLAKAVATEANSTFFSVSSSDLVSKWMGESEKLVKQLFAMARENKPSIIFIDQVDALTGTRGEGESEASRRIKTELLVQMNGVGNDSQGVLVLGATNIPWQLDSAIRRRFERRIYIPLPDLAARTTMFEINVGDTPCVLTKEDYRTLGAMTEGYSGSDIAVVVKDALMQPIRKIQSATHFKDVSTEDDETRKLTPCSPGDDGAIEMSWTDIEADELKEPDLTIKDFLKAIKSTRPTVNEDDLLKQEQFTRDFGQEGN",
  "T1 sequence (Q06263 1-330 partner)": "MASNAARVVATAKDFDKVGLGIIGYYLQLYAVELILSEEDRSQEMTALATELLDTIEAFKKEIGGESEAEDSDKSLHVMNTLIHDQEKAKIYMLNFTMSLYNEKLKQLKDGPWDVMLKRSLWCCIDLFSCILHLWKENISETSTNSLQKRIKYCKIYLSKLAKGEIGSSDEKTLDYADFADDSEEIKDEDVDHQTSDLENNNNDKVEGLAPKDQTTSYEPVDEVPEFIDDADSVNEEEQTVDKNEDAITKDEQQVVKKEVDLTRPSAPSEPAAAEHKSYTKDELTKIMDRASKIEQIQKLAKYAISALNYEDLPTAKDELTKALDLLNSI",
  "assay": "malachite green phosphate release (ATPase)",
  "format": "biochemical",
  "settings": "1 uM Vps4, 5 mM ATP, 2 mM MgCl2, pH 7.5, 37 °C; Vta1 present",
  "data": [
    {"smiles": "Nc1ncnc2c1ncn2[C@@H]1O[C@H](COP(=O)(O)OP(=O)(O)OP(=O)(O)O)[C@@H](O)[C@H]1O", "note": "[ATP]", "values": [
      {"measurement": "malachite green phosphate release (ATPase)", "result": "the ATPase activity of the wild-type Vps4 was increased by twofold in the presence of Vta1"}
    ]}
  ]
}
